Laboratory results reported in US20220339257A1, “METHODS TO INCREASE THE SENSITIVITY AND REVERSING THE RESISTANCE TO DRUGS” (Biomarker Strategies, LLC, priority 2019, published 2022).

System: RPMI-1975
Experiment: HoPI live cell staining
Type: cell-based
Conditions: 24 hours
From the text: A double stain of Hoechst 33342 and propidium iodide allows for the determination of cell viability with high specificity and low background noise, as compared to trypan blue staining. Hoechst 33342 is a cell permeable blue fluorescent nuclear stain which will stain all cell types. Propidium iodide is a cell impermeable red fluorescent nuclear stain that will only bind to the nuclei of cells with compromised membranes (dead cells). The staining can be performed rapidly on live cell suspensions within 15 minutes. 25 uL of 4× Hoechst 33342 Solution (40 ug/mL) and 25 uL of 4×Propidium Iodide Solution are added to 50 uL of cell suspension. The suspension was gently mixed 10 times and 50 uL was immediately transferred to a microfluidic cell counting chip. A 365 nm LED was used to excite both Hoechst 33342 and propidium iodide. Images of the cells were captured using a 10× objective lens on an Olympus microscope using a Canon EOS 6D camera using an ISO of 800 and an exposure of 2 seconds; both JPEG and RAW images were saved for analysis. The blue channel was used to measure the total number of cells and the red channel was used to measure the number of dead cells. Cell counting was performed automatically by the Image Pro software (Media Cybernetics, Inc).
MTA and EM effects on apoptosis were measured by Hoechst-Propidium Iodide staining (HoPI). For the assay, cells were seeded in 6-well plates at 400K cells per well, in 2 mL of 10% FBS-containing media and incubated for 24 hours. At 24 hours, a 1 nM to […] range of MTA and/or 1 ng/mL to 1 mg/mL range of EM doses was added and incubated for 24 hours. After 24 hours incubation respective cells' media was collected, added the 1× HBSS wash from the plate in the respective tube. Adherent cells were detached by treating with Accutase for 6 minutes and collected in respective tubes. All samples were centrifuged for 5 minutes at 1200 RPM. […] The area, mean intensity, standard deviation of the mean intensity, minimum intensity, maximum intensity and perimeter were measured for each cellular region in the red channel and also in the blue channel. […]

Substance: tumor necrosis factor-alpha [EM2]
- reduction in live cells (HoPI) (GSK458 and TNFa in combination): 68%
- reduction in live cells (HoPI) (single agent): 8%
